Test results reported in patent publication US10080764B2, “Topical minocycline compositions and methods of using the same” (Laboratory Skin Care, Inc., priority 2011, dated 2018).

Legend:
Type in all cases: physicochemical
[1] = Binding of minocycline HCl to Hydroxysomes and release (pH dependence); settings: for pH at which minocycline attaches (binds) to Hydroxysomes: binding suspension in water, shaken 30 min, monohydrochloride
Protocol: Hydroxysomes® (calcium phosphate particles, Laboratory Skin Care, San Carlos, Calif.) were suspended in water. […] The final pH of the suspension was adjusted to 6.2 to 8.0 with add. The binding suspension was mixed by shaking for 30 min. The binding suspensions were centrifuged at 10,000 rpm for 10 min in the bench top microcentrifuge. The supernatants were analyzed with the Shimadzu spectrophotometer to quantify the free minocycline. The bound minocycline was calculated by subtracting the amount of the minocycline detected in the supernatant, from the total initial amount in the binding suspension. The total initial minocycline absorbance at the binding pH was calculated from the linearity equation of the standard plot. • Controls: Minocycline solution at the same pH with the same concentration as in the binding mixture. D. Example Formulation

[2] = Fluorescence of bulk powders under white and UV black light; settings: 25 mg MNC/g Hydroxysomes
[3] = Minocycline stability in water, 6 days at room temperature, HPLC of supernatant; settings: capped glass vial
Text: The vials were then centrifuged and the supernatant analyzed by HPLC.

pH at which minocycline associated with Hydroxysomes is unstable (releases) [1]: acidic pH
pH at which minocycline attaches (binds) to Hydroxysomes ([1]; listed as Minocycline): 6.2-8.0
pH at which minocycline attaches (binds) to Hydroxysomes [1]: neutral or alkaline pH
fluorescence of bulk powder under black light [2]: Intense yellow-orange fluorescence
degradation by HPLC analysis of supernatant [3]: substantial degradation
visible discoloration of vial [3]: visibly discolored
Compound: CN(C)c1ccc(O)c2c1C[C@H]1C[C@H]3[C@H](N(C)C)C(O)=C(C(N)=O)C(=O)[C@@]3(O)C(O)=C1C2=O.Cl [Minocycline HCl, 4,7-Bis(dimethylamino) 1,4,4a,5,5a,6,11,12a-octahydro-3,10,12,12a-tetrahydroxy-1,11-dioxo-2-naphthacenecarboxamide monohydrochloride]
